Assay results as given in PMC4457528, “Identification of Novel Small Molecule Inhibitors of Oncogenic RET Kinase” (PLoS ONE, 2015).
Like-named read-outs stand apart in the source and are kept apart here.

Tests used:
Assay in all cases: KinomeScan kinase panel, single concentration 10 µM
Format in all cases: binding
KinomeScan kinase panel [1] = molecular target: T1, KinomeScan kinase panel (Homo sapiens, UniProt Q9P2K8, S808G); conditions: GCN2(Kin.Dom.2.S808G), 10 µM; read-out: score (%)
T1 construct: purchased DiscoveRx (KinomeScan)

KinomeScan kinase panel [2] = molecular target: T2, KinomeScan kinase panel (Homo sapiens, UniProt P07948); conditions: LYN, 10 µM; read-out: score (%)
T2 construct: purchased DiscoveRx (KinomeScan)
T2 sequence (P07948 whole entry): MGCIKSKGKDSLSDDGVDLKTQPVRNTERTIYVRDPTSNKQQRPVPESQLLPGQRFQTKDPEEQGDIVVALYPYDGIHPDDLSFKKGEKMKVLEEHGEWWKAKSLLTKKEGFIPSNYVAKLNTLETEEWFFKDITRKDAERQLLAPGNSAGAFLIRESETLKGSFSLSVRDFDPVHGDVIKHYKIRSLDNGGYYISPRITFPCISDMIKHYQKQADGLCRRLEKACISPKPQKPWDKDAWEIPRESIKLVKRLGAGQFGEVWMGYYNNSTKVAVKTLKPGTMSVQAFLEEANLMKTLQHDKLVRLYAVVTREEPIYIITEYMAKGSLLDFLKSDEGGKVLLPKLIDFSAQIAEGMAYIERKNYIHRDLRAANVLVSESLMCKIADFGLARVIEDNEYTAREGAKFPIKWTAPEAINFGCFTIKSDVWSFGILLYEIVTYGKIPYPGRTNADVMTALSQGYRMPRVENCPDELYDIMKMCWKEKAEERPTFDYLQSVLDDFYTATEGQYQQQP

KinomeScan kinase panel [3] = molecular target: T3, KinomeScan kinase panel (Homo sapiens, UniProt P15056); conditions: BRAF, 10 µM; read-out: score (%)
T3 construct: purchased DiscoveRx (KinomeScan)

KinomeScan kinase panel [4] = molecular target: T4, KinomeScan kinase panel (Homo sapiens, UniProt Q7KZI7); conditions: MARK2, 10 µM; read-out: score (%)
T4 construct: purchased DiscoveRx (KinomeScan)
T4 sequence (Q7KZI7 whole entry): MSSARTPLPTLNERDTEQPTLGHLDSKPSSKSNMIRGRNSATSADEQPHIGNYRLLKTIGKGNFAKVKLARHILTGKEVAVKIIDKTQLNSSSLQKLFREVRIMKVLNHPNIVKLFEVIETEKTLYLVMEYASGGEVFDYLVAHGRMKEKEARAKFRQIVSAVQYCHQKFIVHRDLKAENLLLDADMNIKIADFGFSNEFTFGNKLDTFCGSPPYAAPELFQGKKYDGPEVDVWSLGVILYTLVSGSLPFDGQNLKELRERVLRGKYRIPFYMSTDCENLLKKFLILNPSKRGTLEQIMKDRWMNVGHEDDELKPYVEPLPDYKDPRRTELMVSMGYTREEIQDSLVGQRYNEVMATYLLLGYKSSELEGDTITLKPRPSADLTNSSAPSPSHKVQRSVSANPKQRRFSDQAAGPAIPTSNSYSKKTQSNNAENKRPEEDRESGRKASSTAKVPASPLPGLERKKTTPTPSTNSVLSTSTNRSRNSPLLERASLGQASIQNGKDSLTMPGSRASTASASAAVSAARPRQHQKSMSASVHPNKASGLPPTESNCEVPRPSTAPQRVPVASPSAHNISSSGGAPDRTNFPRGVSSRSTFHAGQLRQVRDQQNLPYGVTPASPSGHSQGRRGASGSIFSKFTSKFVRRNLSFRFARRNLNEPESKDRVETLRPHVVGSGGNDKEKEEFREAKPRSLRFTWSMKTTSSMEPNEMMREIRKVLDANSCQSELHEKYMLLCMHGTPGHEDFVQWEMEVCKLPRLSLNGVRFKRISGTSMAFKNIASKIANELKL

KinomeScan kinase panel [5] = molecular target: T5, KinomeScan kinase panel (Homo sapiens, UniProt P46734); conditions: MEK3, 10 µM; read-out: score (%)
T5 construct: purchased DiscoveRx (KinomeScan)
T5 sequence (P46734 1-347): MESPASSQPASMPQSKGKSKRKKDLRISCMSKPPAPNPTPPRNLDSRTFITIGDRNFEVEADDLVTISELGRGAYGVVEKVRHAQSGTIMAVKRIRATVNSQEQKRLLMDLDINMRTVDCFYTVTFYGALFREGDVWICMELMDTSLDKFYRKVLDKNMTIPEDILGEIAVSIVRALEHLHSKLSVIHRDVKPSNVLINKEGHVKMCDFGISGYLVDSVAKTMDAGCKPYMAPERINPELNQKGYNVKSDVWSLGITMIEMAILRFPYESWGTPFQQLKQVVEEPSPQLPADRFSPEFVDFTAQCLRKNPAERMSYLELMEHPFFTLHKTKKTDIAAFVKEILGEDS

KinomeScan kinase panel [6] = molecular target: T6, KinomeScan kinase panel (Homo sapiens, UniProt Q86Z02); conditions: HIPK1, 10 µM; read-out: score (%)
T6 construct: purchased DiscoveRx (KinomeScan)
T6 sequence (Q86Z02 whole entry): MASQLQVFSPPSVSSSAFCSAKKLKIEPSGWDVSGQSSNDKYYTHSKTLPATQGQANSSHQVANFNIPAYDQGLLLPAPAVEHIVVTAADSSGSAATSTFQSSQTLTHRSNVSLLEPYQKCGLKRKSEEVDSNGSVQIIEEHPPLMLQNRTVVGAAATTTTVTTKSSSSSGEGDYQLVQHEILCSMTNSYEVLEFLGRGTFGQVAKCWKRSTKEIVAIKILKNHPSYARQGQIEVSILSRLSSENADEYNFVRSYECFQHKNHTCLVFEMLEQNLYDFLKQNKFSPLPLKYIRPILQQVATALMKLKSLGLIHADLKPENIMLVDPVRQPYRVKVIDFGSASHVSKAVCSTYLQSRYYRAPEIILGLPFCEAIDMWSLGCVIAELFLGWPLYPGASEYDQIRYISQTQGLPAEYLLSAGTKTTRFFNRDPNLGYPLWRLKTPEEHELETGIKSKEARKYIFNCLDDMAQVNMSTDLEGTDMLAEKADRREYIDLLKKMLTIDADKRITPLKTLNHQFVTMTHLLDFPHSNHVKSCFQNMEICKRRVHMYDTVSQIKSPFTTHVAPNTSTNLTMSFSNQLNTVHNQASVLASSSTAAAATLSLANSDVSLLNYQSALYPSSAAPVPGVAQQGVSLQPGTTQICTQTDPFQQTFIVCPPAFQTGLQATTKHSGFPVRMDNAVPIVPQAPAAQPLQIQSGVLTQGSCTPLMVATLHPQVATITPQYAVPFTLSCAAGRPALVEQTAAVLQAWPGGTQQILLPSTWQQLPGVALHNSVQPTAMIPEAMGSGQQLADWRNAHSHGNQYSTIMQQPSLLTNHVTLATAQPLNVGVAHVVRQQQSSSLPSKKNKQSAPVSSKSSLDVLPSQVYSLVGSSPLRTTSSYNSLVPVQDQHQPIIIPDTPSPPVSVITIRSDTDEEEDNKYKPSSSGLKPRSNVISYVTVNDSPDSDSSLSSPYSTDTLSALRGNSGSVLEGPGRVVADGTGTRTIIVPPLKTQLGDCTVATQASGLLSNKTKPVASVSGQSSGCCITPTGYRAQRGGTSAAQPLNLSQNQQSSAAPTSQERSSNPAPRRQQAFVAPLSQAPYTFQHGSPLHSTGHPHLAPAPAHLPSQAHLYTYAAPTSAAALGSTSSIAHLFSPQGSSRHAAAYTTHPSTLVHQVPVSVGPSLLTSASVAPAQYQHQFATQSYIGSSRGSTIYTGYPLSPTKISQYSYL

KinomeScan kinase panel [7] = molecular target: T7, KinomeScan kinase panel (Homo sapiens, UniProt P29317); conditions: EPHA2, 10 µM; read-out: score (%)
T7 construct: purchased DiscoveRx (KinomeScan)

KinomeScan kinase panel [8] = molecular target: T8, KinomeScan kinase panel (Homo sapiens, UniProt Q9HBH9); conditions: MKNK2, 10 µM; read-out: score (%)
T8 construct: purchased DiscoveRx (KinomeScan)

KinomeScan kinase panel [9] = molecular target: T9, KinomeScan kinase panel (Homo sapiens, UniProt Q16539); conditions: p38-alpha, 10 µM
T9 construct: purchased DiscoveRx (KinomeScan)
T9 sequence (Q16539 whole entry): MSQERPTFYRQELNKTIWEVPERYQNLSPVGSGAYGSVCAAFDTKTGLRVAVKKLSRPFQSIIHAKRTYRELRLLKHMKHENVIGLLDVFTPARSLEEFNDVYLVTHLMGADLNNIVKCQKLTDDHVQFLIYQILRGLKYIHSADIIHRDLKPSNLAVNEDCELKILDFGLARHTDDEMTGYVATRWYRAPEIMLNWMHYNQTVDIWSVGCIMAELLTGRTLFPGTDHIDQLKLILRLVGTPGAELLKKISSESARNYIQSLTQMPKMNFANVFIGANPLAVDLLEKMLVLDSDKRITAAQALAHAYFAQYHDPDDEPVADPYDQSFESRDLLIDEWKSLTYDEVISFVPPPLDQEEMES

KinomeScan kinase panel [10] = molecular target: T10, KinomeScan kinase panel (Homo sapiens, UniProt P00533, G719C); conditions: EGFR(G719C), 10 µM
T10 construct: purchased DiscoveRx (KinomeScan)
T10 sequence (P00533 25-1210 G719C): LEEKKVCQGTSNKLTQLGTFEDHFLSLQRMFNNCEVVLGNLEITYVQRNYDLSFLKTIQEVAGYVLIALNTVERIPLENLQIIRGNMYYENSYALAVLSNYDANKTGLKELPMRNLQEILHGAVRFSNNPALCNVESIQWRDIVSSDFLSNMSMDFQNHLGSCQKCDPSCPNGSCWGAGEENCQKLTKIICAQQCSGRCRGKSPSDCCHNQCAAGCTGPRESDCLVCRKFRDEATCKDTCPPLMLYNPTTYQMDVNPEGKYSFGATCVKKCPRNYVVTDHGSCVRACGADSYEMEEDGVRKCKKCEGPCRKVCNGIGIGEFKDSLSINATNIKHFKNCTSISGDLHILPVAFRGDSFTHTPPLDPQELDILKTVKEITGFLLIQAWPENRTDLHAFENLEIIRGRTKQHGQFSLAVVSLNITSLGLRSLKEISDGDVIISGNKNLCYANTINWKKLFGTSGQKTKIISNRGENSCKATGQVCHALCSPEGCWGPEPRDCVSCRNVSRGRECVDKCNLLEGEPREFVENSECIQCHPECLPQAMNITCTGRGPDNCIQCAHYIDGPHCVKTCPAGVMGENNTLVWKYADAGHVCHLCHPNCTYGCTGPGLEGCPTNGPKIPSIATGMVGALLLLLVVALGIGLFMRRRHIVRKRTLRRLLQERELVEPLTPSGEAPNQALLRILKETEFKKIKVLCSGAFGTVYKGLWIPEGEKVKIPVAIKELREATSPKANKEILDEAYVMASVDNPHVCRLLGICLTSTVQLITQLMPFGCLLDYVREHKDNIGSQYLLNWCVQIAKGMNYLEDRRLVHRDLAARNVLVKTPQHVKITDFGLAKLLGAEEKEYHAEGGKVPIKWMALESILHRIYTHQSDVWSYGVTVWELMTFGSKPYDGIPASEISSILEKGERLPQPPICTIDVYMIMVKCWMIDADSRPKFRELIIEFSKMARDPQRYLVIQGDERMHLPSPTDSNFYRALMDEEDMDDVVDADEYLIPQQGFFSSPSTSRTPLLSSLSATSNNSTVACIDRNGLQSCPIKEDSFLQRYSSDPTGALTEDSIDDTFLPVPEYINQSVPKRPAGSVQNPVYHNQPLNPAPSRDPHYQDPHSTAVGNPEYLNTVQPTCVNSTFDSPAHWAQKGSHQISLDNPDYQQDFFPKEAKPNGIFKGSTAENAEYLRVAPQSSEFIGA

KinomeScan kinase panel [11] = molecular target: T11, KinomeScan kinase panel (Homo sapiens, UniProt P08069); conditions: IGF1R, 10 µM; read-out: score (%)
T11 construct: purchased DiscoveRx (KinomeScan)

KinomeScan kinase panel [12] = molecular target: T12, KinomeScan kinase panel (Homo sapiens, UniProt O60285); conditions: ARK5, 10 µM
T12 construct: purchased DiscoveRx (KinomeScan)
T12 sequence (O60285 1-661): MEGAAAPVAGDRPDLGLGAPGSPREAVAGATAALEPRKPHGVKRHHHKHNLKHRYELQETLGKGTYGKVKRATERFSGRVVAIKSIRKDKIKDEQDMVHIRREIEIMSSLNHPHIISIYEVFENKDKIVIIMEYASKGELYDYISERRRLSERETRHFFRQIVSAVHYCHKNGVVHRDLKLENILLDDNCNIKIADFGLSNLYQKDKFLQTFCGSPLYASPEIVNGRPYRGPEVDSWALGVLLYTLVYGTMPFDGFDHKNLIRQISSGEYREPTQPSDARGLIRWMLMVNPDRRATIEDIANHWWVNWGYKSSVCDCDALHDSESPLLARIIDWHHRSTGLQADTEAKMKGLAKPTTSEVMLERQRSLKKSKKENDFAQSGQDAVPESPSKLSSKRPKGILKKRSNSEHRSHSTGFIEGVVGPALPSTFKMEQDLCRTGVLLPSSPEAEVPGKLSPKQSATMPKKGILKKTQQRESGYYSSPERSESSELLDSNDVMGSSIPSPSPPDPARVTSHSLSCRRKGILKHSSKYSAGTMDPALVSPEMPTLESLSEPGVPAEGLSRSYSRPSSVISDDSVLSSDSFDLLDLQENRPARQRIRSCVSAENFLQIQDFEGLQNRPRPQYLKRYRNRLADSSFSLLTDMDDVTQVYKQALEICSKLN

KinomeScan kinase panel [13] = molecular target: T13, KinomeScan kinase panel (Homo sapiens, UniProt P54756); conditions: EPHA5, 10 µM
T13 construct: purchased DiscoveRx (KinomeScan)
T13 sequence (P54756 25-1037): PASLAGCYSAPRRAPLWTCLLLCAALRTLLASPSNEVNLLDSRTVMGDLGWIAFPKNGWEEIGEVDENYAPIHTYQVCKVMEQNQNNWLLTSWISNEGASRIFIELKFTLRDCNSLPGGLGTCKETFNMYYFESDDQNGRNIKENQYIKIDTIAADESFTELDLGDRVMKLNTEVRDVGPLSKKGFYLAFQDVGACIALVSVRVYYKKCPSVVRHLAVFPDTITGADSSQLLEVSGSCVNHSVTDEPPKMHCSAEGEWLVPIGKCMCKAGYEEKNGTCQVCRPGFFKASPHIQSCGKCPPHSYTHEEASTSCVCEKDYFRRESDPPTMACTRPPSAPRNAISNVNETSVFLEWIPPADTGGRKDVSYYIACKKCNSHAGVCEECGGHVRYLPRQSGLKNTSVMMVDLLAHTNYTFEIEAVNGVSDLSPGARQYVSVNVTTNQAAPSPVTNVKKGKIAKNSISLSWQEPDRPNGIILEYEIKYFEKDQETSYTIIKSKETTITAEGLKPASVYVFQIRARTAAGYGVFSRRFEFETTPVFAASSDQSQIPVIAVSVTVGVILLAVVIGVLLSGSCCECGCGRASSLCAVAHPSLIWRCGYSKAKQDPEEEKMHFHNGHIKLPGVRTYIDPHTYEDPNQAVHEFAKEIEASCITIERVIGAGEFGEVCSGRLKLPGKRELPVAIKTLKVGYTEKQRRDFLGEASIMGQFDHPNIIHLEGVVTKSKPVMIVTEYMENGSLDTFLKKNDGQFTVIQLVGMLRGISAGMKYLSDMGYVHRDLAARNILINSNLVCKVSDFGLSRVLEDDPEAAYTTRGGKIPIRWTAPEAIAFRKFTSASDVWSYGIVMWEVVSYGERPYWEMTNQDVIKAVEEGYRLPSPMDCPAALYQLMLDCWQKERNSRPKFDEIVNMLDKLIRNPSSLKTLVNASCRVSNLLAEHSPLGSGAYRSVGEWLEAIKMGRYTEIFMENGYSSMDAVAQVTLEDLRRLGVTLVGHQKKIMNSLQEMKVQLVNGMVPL

KinomeScan kinase panel [14] = molecular target: T14, KinomeScan kinase panel (Homo sapiens, UniProt P53667); conditions: LIMK1, 10 µM; read-out: score (%)
T14 construct: purchased DiscoveRx (KinomeScan)

KinomeScan kinase panel [15] = molecular target: T15, KinomeScan kinase panel (Homo sapiens, UniProt P57078); conditions: read-out: score (%)
T15 construct: purchased DiscoveRx (KinomeScan)
T15 sequence (P57078 1-832): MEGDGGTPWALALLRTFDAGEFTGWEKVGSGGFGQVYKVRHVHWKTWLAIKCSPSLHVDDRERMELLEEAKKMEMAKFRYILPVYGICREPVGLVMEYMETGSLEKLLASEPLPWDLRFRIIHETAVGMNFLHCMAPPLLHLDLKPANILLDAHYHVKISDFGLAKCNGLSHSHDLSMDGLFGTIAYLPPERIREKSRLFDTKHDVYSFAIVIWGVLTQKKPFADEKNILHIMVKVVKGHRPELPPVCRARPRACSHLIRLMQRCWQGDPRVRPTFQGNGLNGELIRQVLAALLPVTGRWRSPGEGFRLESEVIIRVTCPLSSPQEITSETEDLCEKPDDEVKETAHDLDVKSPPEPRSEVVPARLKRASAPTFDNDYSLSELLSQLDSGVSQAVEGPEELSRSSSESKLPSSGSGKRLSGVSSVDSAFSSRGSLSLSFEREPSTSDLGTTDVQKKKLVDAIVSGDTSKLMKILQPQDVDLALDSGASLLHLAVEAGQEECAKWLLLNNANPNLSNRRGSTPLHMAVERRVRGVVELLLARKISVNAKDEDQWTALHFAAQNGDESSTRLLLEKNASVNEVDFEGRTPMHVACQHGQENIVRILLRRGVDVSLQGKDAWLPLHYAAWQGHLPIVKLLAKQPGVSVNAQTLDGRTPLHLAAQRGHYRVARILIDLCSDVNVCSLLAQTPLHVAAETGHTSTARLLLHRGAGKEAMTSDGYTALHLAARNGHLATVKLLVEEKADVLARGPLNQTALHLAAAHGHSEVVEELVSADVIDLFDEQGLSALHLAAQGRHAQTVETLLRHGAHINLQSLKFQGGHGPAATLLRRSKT

SMILES	remaining binding at 10 µM (KinomeScan kinase panel [1]) [%]	remaining binding at 10 µM (KinomeScan kinase panel [2]) [%]	remaining binding at 10 µM (KinomeScan kinase panel [3]) [%]	remaining binding at 10 µM (KinomeScan kinase panel [4]) [%]	remaining binding at 10 µM (KinomeScan kinase panel [5]) [%]	remaining binding at 10 µM (KinomeScan kinase panel [6]) [%]	remaining binding at 10 µM (KinomeScan kinase panel [7]) [%]	remaining binding at 10 µM (KinomeScan kinase panel [8]) [%]	score (%) (KinomeScan kinase panel [9])	score (%) (KinomeScan kinase panel [10])	remaining binding at 10 µM (KinomeScan kinase panel [11]) [%]	score (%) (KinomeScan kinase panel [12])	score (%) (KinomeScan kinase panel [13])	remaining binding at 10 µM (KinomeScan kinase panel [14]) [%]	remaining binding at 10 µM (KinomeScan kinase panel [15]; RIPK4, 10 µM) [%]	remaining binding at 10 µM (KinomeScan kinase panel [15]; kinase RIPK4, 10 µM) [%]
CCN1CCN(Cc2ccc(NC(=O)c3ccc(C)c(NC(=O)c4cncc(-c5cccs5)c4)c3)cc2C(F)(F)F)CC1 [ALW-II-41-27]	0.3	0.1	1.8	> 30	> 30	> 30	0.15	> 30	0	0.15	> 30	nb (Hits values higher than 30% were considered negative (no binding: nb))	0.25	23	> 30	–
CCN1CCN(Cc2ccc(NC(=O)c3ccc(C)c(/C=C/c4cnc5[nH]ccc5c4Cl)c3)cc2C(F)(F)F)CC1 [HG-6-63-01, (E)-3-(2-(4-chloro-1H-pyrrolo[2,3-b]pyridin-5-yl)vinyl)-N-(4-((4-ethylpiperazin-1-yl)methyl)-3-(trifluoromethyl)phenyl)-4-methylbenzamide]	0.95	0.25	1.2	> 30	> 30	> 30	0.25	0.75	0.15	0.1	> 30	nb (Hits values higher than 30% were considered negative (no binding: nb))	3.3	4.1	> 30	–
CCN1CCN(Cc2ccc(NC(=O)c3ccc(C)c(C#Cc4cccnc4)c3)cc2C(F)(F)F)CC1 [XMD15-44]	1.3	0.05	0.05	> 30	> 30	> 30	0.4	0	0	0.75	> 30	nb (Hits values higher than 30% were considered negative (no binding: nb))	1.2	3	–	48
